In the NIST ThermoML archive (doi:10.1016/j.jct.2019.04.023):

Assay: xn = mol fraction of the nth substance listed
Conditions: 101 kPa, Liquid; for viscosity: Falling or rolling sphere viscometry; for mass density: Vibrating tube method

CC[N+](CC)=C(N(C)C)N(C)C.O=S(=O)([N-]S(=O)(=O)C(F)(F)F)C(F)(F)F + CCO
Conditions | mass density [kg/m3] | viscosity [mPa·s]
293.15 K, x1 = 0.0995 | 1018.97 | 2.764
293.15 K, x1 = 0.1987 | 1136.2 | 5.261
293.15 K, x1 = 0.299 | 1207.9 | 9.359
293.15 K, x1 = 0.3991 | 1256.11 | 13.81
293.15 K, x1 = 0.5075 | 1293.66 | 20.03
293.15 K, x1 = 0.5956 | 1316.86 | 26.34
293.15 K, x1 = 0.7065 | 1339.41 | 36.42
293.15 K, x1 = 0.7983 | 1353.71 | 47.01
293.15 K, x1 = 0.9106 | 1367.67 | 62.04
293.15 K, x1 = 0.951 | 1372.2 | 70.47
293.15 K, x1 = 1 | 1377.86 | 81.02
298.15 K, x1 = 0.0995 | 1014.27 | 2.453
298.15 K, x1 = 0.1987 | 1131.43 | 4.596
298.15 K, x1 = 0.299 | 1203.13 | 8.052
298.15 K, x1 = 0.3991 | 1251.35 | 11.82
298.15 K, x1 = 0.5075 | 1288.9 | 16.96
298.15 K, x1 = 0.5956 | 1312.11 | 22.12
298.15 K, x1 = 0.7065 | 1334.68 | 30.22
298.15 K, x1 = 0.7983 | 1348.98 | 38.69
298.15 K, x1 = 0.9106 | 1362.96 | 50.44
298.15 K, x1 = 0.951 | 1367.5 | 56.94
298.15 K, x1 = 1 | 1373.16 | 65.01
303.15 K, x1 = 0.0995 | 1009.56 | 2.19
303.15 K, x1 = 0.1987 | 1126.67 | 4.044
303.15 K, x1 = 0.299 | 1198.38 | 6.99
303.15 K, x1 = 0.3991 | 1246.63 | 10.23
303.15 K, x1 = 0.5075 | 1284.19 | 14.53
303.15 K, x1 = 0.5956 | 1307.39 | 18.83
303.15 K, x1 = 0.7065 | 1329.99 | 25.47
303.15 K, x1 = 0.7983 | 1344.3 | 32.25
303.15 K, x1 = 0.9106 | 1358.3 | 41.52
303.15 K, x1 = 0.951 | 1362.85 | 46.62
303.15 K, x1 = 1 | 1368.51 | 52.96
308.15 K, x1 = 0.0995 | 1004.84 | 1.964
308.15 K, x1 = 0.1987 | 1121.91 | 3.583
308.15 K, x1 = 0.299 | 1193.62 | 6.102
308.15 K, x1 = 0.3991 | 1241.9 | 8.914
308.15 K, x1 = 0.5075 | 1279.48 | 12.57
308.15 K, x1 = 0.5956 | 1302.7 | 16.19
308.15 K, x1 = 0.7065 | 1325.33 | 21.69
308.15 K, x1 = 0.7983 | 1339.66 | 27.29
308.15 K, x1 = 0.9106 | 1353.68 | 34.83
308.15 K, x1 = 0.951 | 1358.24 | 38.87
308.15 K, x1 = 1 | 1363.9 | 43.84
313.15 K, x1 = 0.0995 | 1000.1 | 1.773
313.15 K, x1 = 0.1987 | 1117.13 | 3.195
313.15 K, x1 = 0.299 | 1188.87 | 5.364
313.15 K, x1 = 0.3991 | 1237.18 | 7.841
313.15 K, x1 = 0.5075 | 1274.79 | 10.98
313.15 K, x1 = 0.5956 | 1298.03 | 14.08
313.15 K, x1 = 0.7065 | 1320.7 | 18.73
313.15 K, x1 = 0.7983 | 1335.04 | 23.34
313.15 K, x1 = 0.9106 | 1349.09 | 29.46
313.15 K, x1 = 0.951 | 1353.66 | 32.73
313.15 K, x1 = 1 | 1359.32 | 36.79
318.15 K, x1 = 0.0995 | 995.32 | 1.606
318.15 K, x1 = 0.1987 | 1112.33 | 2.864
318.15 K, x1 = 0.299 | 1184.11 | 4.758
318.15 K, x1 = 0.3991 | 1232.46 | 6.927
318.15 K, x1 = 0.5075 | 1270.1 | 9.662
318.15 K, x1 = 0.5956 | 1293.36 | 12.36
318.15 K, x1 = 0.7065 | 1316.07 | 16.3
318.15 K, x1 = 0.7983 | 1330.44 | 20.16
318.15 K, x1 = 0.9106 | 1344.52 | 25.22
318.15 K, x1 = 0.951 | 1349.1 | 27.9
318.15 K, x1 = 1 | 1354.76 | 31.25
323.15 K, x1 = 0.0995 | 990.51 | 1.463
323.15 K, x1 = 0.1987 | 1107.51 | 2.585
323.15 K, x1 = 0.299 | 1179.33 | 4.253
323.15 K, x1 = 0.3991 | 1227.73 | 6.158
323.15 K, x1 = 0.5075 | 1265.41 | 8.555
323.15 K, x1 = 0.5956 | 1288.7 | 10.91
323.15 K, x1 = 0.7065 | 1311.45 | 14.31
323.15 K, x1 = 0.7983 | 1325.84 | 17.59
323.15 K, x1 = 0.9106 | 1339.96 | 21.82
323.15 K, x1 = 0.951 | 1344.55 | 24.03
323.15 K, x1 = 1 | 1350.21 | 26.79

CC[N+](CC)=C(N(C)C)N(C)C.O=S(=O)([N-]S(=O)(=O)C(F)(F)F)C(F)(F)F + CO
Conditions | mass density [kg/m3] | viscosity [mPa·s]
293.15 K, x1 = 0.0999 | 1073.55 | 1.848
293.15 K, x1 = 0.1984 | 1186.61 | 4.046
293.15 K, x1 = 0.3011 | 1249.9 | 7.913
293.15 K, x1 = 0.4008 | 1288.15 | 13.15
293.15 K, x1 = 0.5055 | 1315.68 | 19.75
293.15 K, x1 = 0.5916 | 1332.42 | 26.14
293.15 K, x1 = 0.712 | 1350.19 | 37.44
293.15 K, x1 = 0.7994 | 1360.11 | 46.94
293.15 K, x1 = 0.8995 | 1369.61 | 61.78
293.15 K, x1 = 1 | 1377.86 | 81.02
298.15 K, x1 = 0.0999 | 1068.63 | 1.685
298.15 K, x1 = 0.1984 | 1181.69 | 3.569
298.15 K, x1 = 0.3011 | 1245.05 | 6.875
298.15 K, x1 = 0.4008 | 1283.31 | 11.36
298.15 K, x1 = 0.5055 | 1310.86 | 16.81
298.15 K, x1 = 0.5916 | 1327.63 | 22.03
298.15 K, x1 = 0.712 | 1345.44 | 30.94
298.15 K, x1 = 0.7994 | 1355.37 | 38.51
298.15 K, x1 = 0.8995 | 1364.9 | 49.75
298.15 K, x1 = 1 | 1373.16 | 65.01
303.15 K, x1 = 0.0999 | 1063.71 | 1.538
303.15 K, x1 = 0.1984 | 1176.79 | 3.198
303.15 K, x1 = 0.3011 | 1240.23 | 6.03
303.15 K, x1 = 0.4008 | 1278.51 | 9.842
303.15 K, x1 = 0.5055 | 1306.08 | 14.47
303.15 K, x1 = 0.5916 | 1322.88 | 18.78
303.15 K, x1 = 0.712 | 1340.73 | 26.03
303.15 K, x1 = 0.7994 | 1350.68 | 32.26
303.15 K, x1 = 0.8995 | 1360.23 | 41.13
303.15 K, x1 = 1 | 1368.51 | 52.96
308.15 K, x1 = 0.0999 | 1058.79 | 1.413
308.15 K, x1 = 0.1984 | 1171.9 | 2.949
308.15 K, x1 = 0.3011 | 1235.43 | 5.332
308.15 K, x1 = 0.4008 | 1273.73 | 8.651
308.15 K, x1 = 0.5055 | 1301.33 | 12.59
308.15 K, x1 = 0.5916 | 1318.16 | 16.22
308.15 K, x1 = 0.712 | 1336.05 | 22.2
308.15 K, x1 = 0.7994 | 1346.03 | 27.19
308.15 K, x1 = 0.8995 | 1355.6 | 34.31
308.15 K, x1 = 1 | 1363.9 | 43.84
313.15 K, x1 = 0.0999 | 1053.86 | 1.296
313.15 K, x1 = 0.1984 | 1167.01 | 2.613
313.15 K, x1 = 0.3011 | 1230.63 | 4.749
313.15 K, x1 = 0.4008 | 1268.96 | 7.645
313.15 K, x1 = 0.5055 | 1296.6 | 11.05
313.15 K, x1 = 0.5916 | 1313.46 | 14.12
313.15 K, x1 = 0.712 | 1331.4 | 19.15
313.15 K, x1 = 0.7994 | 1341.4 | 23.25
313.15 K, x1 = 0.8995 | 1351 | 29.05
313.15 K, x1 = 1 | 1359.32 | 36.79
318.15 K, x1 = 0.0999 | 1048.89 | 1.2
318.15 K, x1 = 0.1984 | 1162.1 | 2.362
318.15 K, x1 = 0.3011 | 1225.81 | 4.261
318.15 K, x1 = 0.4008 | 1264.19 | 6.815
318.15 K, x1 = 0.5055 | 1291.87 | 9.775
318.15 K, x1 = 0.5916 | 1308.77 | 12.43
318.15 K, x1 = 0.712 | 1326.77 | 16.69
318.15 K, x1 = 0.7994 | 1336.79 | 20.12
318.15 K, x1 = 0.8995 | 1346.42 | 24.89
318.15 K, x1 = 1 | 1354.76 | 31.25
323.15 K, x1 = 0.0999 | 1043.89 | 1.114
323.15 K, x1 = 0.1984 | 1157.19 | 2.157
323.15 K, x1 = 0.3011 | 1221 | 3.854
323.15 K, x1 = 0.4008 | 1259.42 | 6.126
323.15 K, x1 = 0.5055 | 1287.15 | 8.704
323.15 K, x1 = 0.5916 | 1304.09 | 10.98
323.15 K, x1 = 0.712 | 1322.14 | 14.66
323.15 K, x1 = 0.7994 | 1332.18 | 17.56
323.15 K, x1 = 0.8995 | 1341.85 | 21.56
323.15 K, x1 = 1 | 1350.21 | 26.79
